{
  "source": "patent US11045435B2",
  "about": "“Methods for treating ocular diseases” (NATUREWISE BIOTECH & MEDICALS CORPORATION, priority 2016, dated 2021)",
  "key": {"[1]": {"system": "Blood-Retinal Barrier Breakdown in Streptozotocin-Induced Diabetic Macular Edema", "assay": "Evans blue leakage (blood-retinal barrier breakdown) in streptozotocin-induced diabetic macular edema", "format": "in vivo, Sprague-Dawley female rats", "procedure": "After a 16-hour fast, Sprague-Dawley female rats weighing 200-220 g received a single 60 mg/kg intraperitoneal injection of Streptozotocin (STZ; Sigma-Aldrich, St. Louis, Md.) in 10 mM sodium citrate buffer (pH 4.5; Sigma-Aldrich, St. Louis, Md.). Control rats were fasted and received the buffer alone. Rats with blood glucose levels higher than 375 mg/dL 7 days after receiving STZ were considered to be diabetic. Body weight and blood glucose were detected every week. All experiments were performed in accordance with regulations specified by the Guide for the Care and Handling of Laboratory Animals (NIH Publication no. 85-23). For the treatments, rats were instilled with 0.5% and 1% COMPOUND I eye drops. Both eyes of all rats were instilled with 1 drop of ophthalmic solution 3 times a day for 6 weeks after diabetes production. Rats were treated with 0.5% and 1% COMPOUND I or vehicle solution eye drops 3 times a day for […] after glucose levels determination. Animal care and treatment were followed by the institutional guidelines. After induction of general anesthesia, the right jugular vein and right iliac artery were cannulated with 0.28- and 0.58-mm internal diameter polyethylene tubing, respectively, which were filled with heparinized saline (50 IU heparin/ml saline). Evans blue (Sigma-Aldrich, St. Louis, Md.) was injected through the jugular vein over 10 seconds at a dosage of 45 mg/kg. Immediately after Evans blue infusion, the rats turned visibly blue, confirming their uptake and distribution of the dye. Subsequently, at 15-minute intervals, 0.1 ml blood was drawn from the iliac artery for 2 hours to obtain the time-averaged plasma Evans blue concentration. After the dye had circulated for 120 minutes, the chest cavity was opened, and rats were perfused for 2 minutes via the left ventricle at 37° C. with 0.05 M, pH 3.5, citrate-buffered paraformaldehyde (Sigma-Aldrich, St. Louis, Md.). A pH of 3.5 was used to optimize binding of Evans blue to albumin and the perfusion solution was warmed to 37° C. to prevent vasoconstriction. Immediately after perfusion, both eyes were enucleated and dissected at the equator. The retinas were carefully dissected away under an operating microscope and thoroughly dried in vacuum equipment for 5 hours. The dry weight was used to normalize the quantitation of Evans blue leakage. Evans blue was extracted by incubating each retina in […] formamide (Sigma-Aldrich. St. Louis. Md.) for 18 hours at 70° C. […] The background-subtracted absorbance was determined by measuring each sample at both 620 nm, the absorbance maximum for Evans blue in formamide, and 740 nm, the absorbance minimum. The concentration of dye in the extracts was calculated from a standard curve of Evans blue in formamide. […]"}, "GFAP mRNA": {"system": "GFAP mRNA", "assay": "Gene expression of GFAP in retina, quantitative real-time PCR, streptozotocin-induced diabetic retinopathy", "format": "in vivo, Sprague-Dawley female rats", "procedure": "After a 16-hour fasting, Sprague-Dawley female rats weighing 200-220 g received a single 60 mg/kg intraperitoneal injection of Streptozotocin (STZ; Sigma-Aldrich, St. Louis, Md.) in 10 mM sodium citrate buffer (pH 4.5; Sigma-Aldrich, St. Louis, Md.). Control rats were fasted and received the buffer solution alone. Rats with blood glucose levels higher than 375 mg/dL 7 days after receiving STZ were considered to be diabetic. Diabetic rats were treated with 1% COMPOUND I, 0.5% COMPOUND I or vehicle eye drops 3 time a day for 6 weeks.\nAfter rat were sacrificed as described previously, the eyes were enucleated and bisected, and the retinas were peeled from the eyecups and immediately homogenized in RNA isolation agent (RNeasy®Plus Mini Kit, Qiagen, Valencia, Calif.). The first-strand cDNA was prepared from the mRNA by using the commercial kit in accordance with the manufacturer's protocol (High-capacity reverse transcription kits, AB life technologies, Austin, Tex.). Real-time PCR was performed in 96-well plates using standard protocols with a fluorescent detection dye (SYBRR Green PCR Master Mix, AB life technologies, Austin, Tex.) in a real-time detection system (iCycler. Bio-Rad). All PCR reactions were a final volume of 20 μl comprised of fluorescent dye/PCR mix, final concentration 0.2 μM forward and reverse primers, and 1 ng of cDNA. The PCR cycle parameters were as follows: polymerase activation for 15 minutes at 90° C., 40 cycles of 95° C. for 15 seconds, 60° C. for 30 seconds and 72° C. for 1 minute. The quantity of mRNA was calculated by normalizing the CT of the β-actin housekeeping gene in the same sample, according to the following formula: The average β-actin CT (each multiplex PCR was performed in triplicate) was subtracted from the average target gene CT; the results represented the ΔCT. This ΔCT is specific and can be compared with the ΔCT of a calibration sample. The subtraction of control ΔCT from the ΔCT of the target gene is referred ΔΔCT. The relative quantification of expression of a target gene (in comparison with control) was determined by using 2^−ΔΔCT."}},
  "data": [
    {"compound": "COc1ccc(COc2c(/C=C/C(=O)NO)ccc(OC)c2CC=C(C)C)cc1", "note": "[COMPOUND I]", "values": [
      {"measurement": "Evans blue leakage, diabetic vehicle control group as 100%", "setting": "[1]; 0.5% eye drops 3 times a day", "value": 68, "unit": "%"},
      {"measurement": "Evans blue leakage, in words", "setting": "[1]; 0.5% eye drops 3 times a day", "value": "partially"},
      {"measurement": "Evans blue leakage, diabetic vehicle control group as 100%", "setting": "[1]; 1% eye drops 3 times a day", "value": 56, "unit": "%"},
      {"measurement": "Evans blue leakage / BRB breakdown, in words", "setting": "[1]; 1% eye drops 3 times a day, listed as BMX", "value": "completely restored"},
      {"measurement": "GFAP gene expression vs diabetic control group, in words", "setting": "GFAP mRNA; 0.5% and 1%", "value": "significantly down-regulated"},
      {"measurement": "mRNA expression of GFAP, DR animals as 100%", "setting": "GFAP mRNA; 0.5% eye drops tid 6 weeks", "value": 60, "unit": "%"},
      {"measurement": "mRNA expression of GFAP, DR animals as 100%", "setting": "GFAP mRNA; 1% eye drops tid 6 weeks", "value": 51, "unit": "%"}
    ]}
  ]
}
